The source of these data is ChEMBL document CHEMBL4842350, “Discovery of a Novel Bromodomain and Extra Terminal Domain (BET) Protein Inhibitor, I-BET282E, Suitable for Clinical Progression” (J Med Chem, 2021).

Usually IC50 stands for the point on the concentration scale where inhibition reaches its midpoint. Broadly, the solubility is the concentration that dissolves in the medium under given conditions.

The target in data set [1] is Bromodomain-containing protein 4 (Homo sapiens, UniProt O60885, Y390A). As to the kind of experiment: Displacement of Alexa Fluor 647 labelled ligand from recombinant human N-terminal 6His-tagged BRD4-BD1 Y390A mutant (1 to 477 residue) expressed in Escherichia coli incubated for 30 mins by TR-FRET assay. Background: In TR-FRET formats the signal depends on donor and acceptor labels being close together.

The target of data set [2] is T1, Bromodomain-containing protein 4 (Homo sapiens, UniProt O60885). The data set can be described thus: Inhibition of BRD4 in human PBMC assessed as reduction in LPS-induced IL-6 secretion incubated for 18 to 24 hrs by MSD assay.
The target of data set [3] is T1, Bromodomain-containing protein 4. As to the kind of experiment: Inhibition of BRD4 in human whole blood assessed as reduction in LPS-induced IL-6 secretion preincubated for 30 mins followed by LPS stimulation and measured after 24 hrs by MSD assay. It counts as tissue-based.
For data set [4] the following is noted: rat, hepatocytes, 2 h, 0.5 µM.
The conditions of data set [5]: human, hepatocytes, 2 h, 0.5 µM.
The conditions of data set [6]: dog, hepatocytes, 2 h, 0.5 µM.
The next data set concerns the target Cytochrome P450 3A4 (Homo sapiens, UniProt P08684). As to the kind of experiment: Inhibition of recombinant human CYP3A4 expressed in Escherichia coli using VG as probe substrate incubated for 15 to 60 mins by fluorometric assay. It counts as ADME.
Another data set addresses Cytochrome P450 2C9 (Homo sapiens, UniProt P11712).
The next data set is described as follows: physchem. The following applies: FaSSIF, pH 6.5.

≈ marks a conversion by molar mass, not a printed value. Bounds are passed on as bounds.

Chain of Cytochrome P450 3A4 (P08684 whole entry): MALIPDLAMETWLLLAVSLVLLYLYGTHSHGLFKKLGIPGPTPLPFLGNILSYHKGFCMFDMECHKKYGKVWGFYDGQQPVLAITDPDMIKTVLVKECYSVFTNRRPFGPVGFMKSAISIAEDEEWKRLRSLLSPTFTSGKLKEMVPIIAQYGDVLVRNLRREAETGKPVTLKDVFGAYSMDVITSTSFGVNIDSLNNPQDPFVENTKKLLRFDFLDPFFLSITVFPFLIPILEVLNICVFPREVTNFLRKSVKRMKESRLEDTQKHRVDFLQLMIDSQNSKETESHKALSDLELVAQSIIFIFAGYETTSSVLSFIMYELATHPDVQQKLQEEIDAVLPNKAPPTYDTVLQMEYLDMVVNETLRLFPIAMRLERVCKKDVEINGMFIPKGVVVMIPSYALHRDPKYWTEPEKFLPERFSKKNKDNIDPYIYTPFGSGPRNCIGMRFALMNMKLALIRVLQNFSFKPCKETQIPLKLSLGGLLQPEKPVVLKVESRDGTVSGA
Chain of Cytochrome P450 2C9 (P11712 whole entry): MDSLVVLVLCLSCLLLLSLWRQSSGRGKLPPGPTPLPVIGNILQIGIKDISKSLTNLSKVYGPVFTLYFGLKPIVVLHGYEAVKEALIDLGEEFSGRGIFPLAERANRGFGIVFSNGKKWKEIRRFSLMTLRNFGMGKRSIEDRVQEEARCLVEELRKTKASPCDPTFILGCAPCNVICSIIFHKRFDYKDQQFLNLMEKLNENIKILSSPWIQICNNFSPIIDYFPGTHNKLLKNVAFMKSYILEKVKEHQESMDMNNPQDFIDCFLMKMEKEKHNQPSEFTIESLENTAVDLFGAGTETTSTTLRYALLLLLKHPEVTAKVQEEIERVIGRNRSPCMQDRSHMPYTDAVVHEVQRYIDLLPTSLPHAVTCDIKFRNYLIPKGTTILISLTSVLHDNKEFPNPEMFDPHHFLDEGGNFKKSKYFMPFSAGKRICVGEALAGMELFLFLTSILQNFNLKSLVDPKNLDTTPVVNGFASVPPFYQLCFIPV
Description for Cytochrome P450 2C9: Inhibition of recombinant human CYP2C9 expressed in Escherichia coli using FCA as substrate incubated for 15 to 60 mins by fluorometric assay
Description for physchem: Solubility of the compound in FaSSIF at pH 6.5 measured after 30 mins by HPLC analysis

In the case of `COc1cc2c(cc1-c1c(C)noc1C)ncc1nc(C3CCOCC3)n(CC3CC3)c12`, the figures for the IC50 in data set [1], in [2] and in [3] were 126 nM, 316 nM and 2000 nM, respectively.
In the case of `CCNC(=O)C[C@@H]1N=C(c2ccc(Cl)cc2)c2cc(OC)ccc2-n2c(C)nnc21` [MOLIBRESIB], the CLint in data set [4] is less than 0.86 mL/min/g liver; in [5], less than 0.86 mL/min/g liver; in data set [6], less than 1.7 mL/min/g liver.
For the molecule `COCc1nc2cnc3cc(-c4c(C)noc4C)c(OC)cc3c2n1C(C)COC` (racemic), the values for the IC50 in data set [1] and in [2] were 200 nM and 631 nM, respectively.
The corresponding values for `COCc1nc2cnc3cc(-c4c(C)noc4C)c(OC)cc3c2n1CC1CCOCC1` are 79.4 nM and 398 nM.
The corresponding values for `COc1cc2c(cc1-c1c(C)noc1C)ncc1[nH]c(=O)n(C(C)C)c12` are 1260 nM and 3160 nM.
The corresponding values for `COc1cc2c(cc1-c1c(C)noc1C)ncc1[nH]c(=O)n(Cc3ccccn3)c12` are 158 nM and 501 nM.
For the molecule `COc1cc2c(cc1-c1c(C)noc1C)ncc1nc(N(C)C)n(CC3CCOCC3)c12`, the IC50 was 10000 nM at Cytochrome P450 3A4; 1300 nM on Cytochrome P450 2C9; 31.6 nM in [1]; 39.8 nM in [2]; 251 nM in [3].
`COc1cc2c(cc1-c1c(C)noc1C)ncc1[nH]c(=O)n(CC(C)C)c12`: the IC50 is 794 nM in data set [1] and 1000 nM in data set [2].
With `COC[C@H](C)n1c(C2CCOCC2)nc2cnc3cc(-c4c(C)noc4C)c(OC)cc3c21`, the IC50 is 158 nM in data set [1], 501 nM in [2] and 316 nM in data set [3].
With `COCCNc1nc2cnc3cc(-c4c(C)noc4C)c(OC)cc3c2n1Cc1ccccn1`, the IC50 at Cytochrome P450 3A4 was 15800 nM; at Cytochrome P450 2C9, 31600 nM; in data set [1], 31.6 nM; in data set [2] it was 100 nM; in [3], 398 nM.
Consider `COc1cc2c(cc1-c1c(C)noc1C)ncc1nc(N)n(Cc3ccccn3)c12`, for which the values for the IC50 in data set [1] and in data set [2] were 39.8 nM and 158 nM, respectively.
The corresponding values for `CCc1nc2cnc3cc(-c4c(C)noc4C)c(OC)cc3c2n1Cc1ccccn1` are 31.6 nM and 158 nM.
Taken in the same sequence, the figures for `COc1cc2c(cc1-c1c(C)noc1C)ncc1nc(C)n(Cc3ccccn3)c12` were 39.8 nM and 39.8 nM.
In “physchem”, `COc1cc2c(cc1-c1c(C)noc1C)ncc1[nH]c(=O)n([C@H](C)c3ccccn3)c12` came in with a solubility at 0.5 h of 66 µg/mL (≈ 159 µM). Further, the results for the CLint in [4], in data set [5] and in data set [6] were less than 0.86 mL/min/g liver, less than 0.86 mL/min/g liver and 9.8 mL/min/g liver, respectively.
Regarding `COc1cc2c(cc1-c1c(C)noc1C)ncc1nc(C3CCOCC3)n(C(C)C3CCOCC3)c12` (stereo not drawn), the figures for the IC50 in data set [1], in data set [2] and in [3] were 31.6 nM, 100 nM and 200 nM, respectively.
For `COCC(C)n1c(=O)[nH]c2cnc3cc(-c4c(C)noc4C)c(OC)cc3c21` (racemic), the IC50 is 631 nM in data set [1] and 1580 nM in [2].
In the case of `CCCc1nc2cnc3cc(-c4c(C)noc4C)c(OC)cc3c2n1Cc1ccccn1`, the figures for the IC50 in data set [1] and in data set [2] were 25.1 nM and 126 nM, respectively.
Regarding `COc1cc2c(cc1-c1c(C)noc1C)ncc1[nH]c(=O)n(C(C)C3CCOCC3)c12` (racemic), the IC50 was 158 nM in data set [1] and 200 nM in data set [2].
The corresponding values for `COc1cc2c(cc1-c1c(C)noc1C)ncc1nc(C3CCOCC3)n(Cc3ccccn3)c12` are 63.1 nM and 251 nM.
The corresponding values for `COc1cc2c(cc1-c1c(C)noc1C)ncc1[nH]c(=O)n(C3CCOCC3)c12` are 1580 nM and 1580 nM.
`COc1cc2c(cc1-c1c(C)noc1C)ncc1[nH]c(=O)n(CC3CCOCC3)c12`: the IC50 in data set [1] was 100 nM; in data set [2] it was 200 nM.
For `COCC(C)n1c(C2CCOCC2)nc2cnc3cc(-c4c(C)noc4C)c(OC)cc3c21` (racemic), the values for the IC50 in data set [1], in data set [2] and in data set [3] were 100 nM, 126 nM and 398 nM, respectively.
As for `CCCC(C)n1c(=O)[nH]c2cnc3cc(-c4c(C)noc4C)c(OC)cc3c21` (stereo not drawn), the IC50 in data set [1] and in data set [2] was 126 nM throughout.
`COc1cc2c(cc1-c1c(C)noc1C)ncc1[nH]c(=O)n(CC3CC3)c12`: the results for the IC50 in data set [1] and in data set [2] were 631 nM and 398 nM, respectively.
Consider `COCCNc1nc2cnc3cc(-c4c(C)noc4C)c(OC)cc3c2n1[C@H](C)c1ccccn1`, for which the IC50 is 7900 nM at Cytochrome P450 3A4; 7900 nM against Cytochrome P450 2C9; 12.6 nM in [1]; 25.1 nM in data set [2]; 158 nM in [3].
For `COc1cc2c(cc1-c1c(C)noc1C)ncc1[nH]c(=O)n(CC3CCN(C)CC3)c12`, the IC50 in [1] was 1260 nM; in data set [2] it was 3160 nM.
Take `COc1cc2c(cc1-c1c(C)noc1C)ncc1nc(N3CCOCC3)n(CC3CCOCC3)c12`: the IC50 in [1] is 39.8 nM; in data set [2] it was 25.1 nM; in data set [3], 251 nM.
As to `COCc1nc2cnc3cc(-c4c(C)noc4C)c(OC)cc3c2n1Cc1ccccn1`, the IC50 was 63.1 nM in data set [1] and 398 nM in data set [2].
On to `COc1cc2c(cc1-c1c(C)noc1C)ncc1nc(C(C)C)n(Cc3ccccn3)c12`, for which the IC50 is 39.8 nM in data set [1] and 158 nM in data set [2].
Taken in the same sequence, the figures for `COc1cc2c(cc1-c1c(C)noc1C)ncc1[nH]c(=O)n(C3CCNCC3)c12` were 2000 nM and 15800 nM.
Taken in the same sequence, the figures for `COc1cc2c(cc1-c1c(C)noc1C)ncc1[nH]c(=O)n(CC3CCOC3)c12` (racemic) were 631 nM and 3980 nM.
Consider `COc1cc2c(cc1-c1c(C)noc1C)ncc1[nH]c(=O)n(CCN(C)C)c12`, for which the IC50 in [1] was 794 nM; in data set [2], 1580 nM.
Taken in the same sequence, the figures for `COc1cc2c(cc1-c1c(C)noc1C)ncc1[nH]c(=O)n(CC3CCCOC3)c12` (racemic) were 251 nM and 1260 nM.
